Laboratory results as given in PubChem BioAssay (NCI).
Values joined by “and” are separate entries in the source; they are usually repeats but may differ in a detail not shown here. Equal entries are not always repeated.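 Growth conditions: 96-well plates. Treatment: test compound, 48 hours, 5 concentrations. Analysis: linear interpolation between bracketing concentrations; unreached endpoints set to highest concentration. GI50 marks 50% less growth. TGI marks complete inhibition of growth.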

Legend:
Test in all cases: NCI anticancer screen, dose series, 48 h
EKVX NSCLC = tested on: EKVX NSCLC
HCT-116 colon = tested on: HCT-116 colon
IGROV1 ovarian = tested on: IGROV1 ovarian
MDA-MB-435 = tested on: MDA-MB-435
SK-MEL-28 melanoma = tested on: SK-MEL-28 melanoma
SK-OV-3 ovarian = tested on: SK-OV-3 ovarian
UACC-62 melanoma = tested on: UACC-62 melanoma
MOLT-4 leukemia = tested on: MOLT-4 leukemia
SNB-75 CNS = tested on: SNB-75 CNS

SMILES	TGI (EKVX NSCLC) [µM]	TGI (HCT-116 colon) [µM]	TGI (IGROV1 ovarian) [µM]	TGI (MDA-MB-435) [µM]	TGI (SK-MEL-28 melanoma) [µM]	TGI (SK-OV-3 ovarian) [µM]	TGI (UACC-62 melanoma) [µM]	TGI (MOLT-4 leukemia) [µM]	TGI (SNB-75 CNS) [µM]	GI50 (MDA-MB-435)	GI50 (EKVX NSCLC) [µM]	GI50 (IGROV1 ovarian) [µM]	GI50 (MOLT-4 leukemia) [µM]	GI50 (SK-OV-3 ovarian) [µM]	GI50 (SNB-75 CNS) [µM]	GI50 (UACC-62 melanoma) [µM]	GI50 (SK-MEL-28 melanoma) [µM]
C=CCSC1=N/C(=C\c2ccc(Cl)cc2)C(=O)N1CC=C	57.3	> 100	> 100	> 100	> 100	> 100	> 100	–	–	–	–	–	–	–	–	–	–
O=C1[C@H](O)[C@@H]2C(O)O[C@H]3[C@@H]2N1C[C@H]3[Si](c1ccccc1)(c1ccccc1)c1ccccc1 (stereo partly specified)	> 100	> 100	> 100	> 100	> 100	> 100	> 100	> 100	69.4	–	–	–	–	–	–	–	–
NC(=O)CNC(=O)[C@@H]1CC(OCCC(=O)O)CN1C(=O)C1CCCN1C(=O)OCc1ccccc1 (stereo partly specified)	> 100	> 100	> 100	> 100	> 100	> 100	> 100	> 100	> 100	–	–	–	–	–	–	–	–
COc1cc2c(c3c1c(=O)c1ccccc1n3C)C=CC1(CCCC1)O2	26.4	28.6	28.4	35	28	38.4	29.1	> 100	24.8	–	–	–	–	–	–	–	–
O=S1(=O)c2ccccc2Oc2ccc(C(/C=N/O)=N/O)cc21	57.7	> 100	68.9	52.4	> 100	> 100	> 100	> 100	> 100	–	–	–	–	–	–	–	–
CN(C)CCNc1ccc2c(=O)n(CCN(C)C)c(=O)n3c4ccc(O)cc4c(=O)c1c23	0.57	0.308	0.53	0.259	0.863	1.04	0.147	< 0.01	0.305	–	–	–	–	–	–	–	–
CCOC(=O)c1c(C)n(Cc2ccc(Cl)cc2Cl)c2c1cc(O)c1[nH]c3c(c12)CCCC3	> 100	> 100	75.2	55.5	45	> 100	49.2	29.4	48.6	–	–	–	–	–	–	–	–
CCn1nc(C)c2c1C(=O)NCC(=O)N2	> 100	> 100	> 100	> 100	> 100	> 100	> 100	–	> 100	–	–	–	–	–	–	–	–
Nc1n(CC(=O)c2ccccc2)nc2sc(-c3ccccc3)n[n+]12	> 100	–	56.6	8.95	> 100	92	25.1	> 100	> 100	–	–	–	–	–	–	–	–
C=CCn1c(=O)c(C)cn(COCCO)c1=O	> 100	–	> 100	> 100	> 100	–	–	> 100	> 100	–	–	–	–	–	–	–	–
CC(=O)c1c(-c2cccc3ccccc23)c(C#N)c(=S)n(C2OC(CO)C(O)C(O)C2O)c1C (stereo unspecified)	32.4	> 100	> 100	> 100	> 100	> 100	> 100	> 100	> 100	> 100 µM and 46.9 µM	–	–	–	–	–	–	–
O=C1c2cccc([N+](=O)[O-])c2C(=O)N1Cc1ccccc1	> 100	> 100	> 100	> 100	> 100	> 100	> 100	> 100	> 100	–	–	–	–	–	–	–	–
O=[N+]([O-])c1ccccc1OCCOc1ccccc1[N+](=O)[O-]	> 100	> 100	> 100	> 100	> 100	> 100	> 100	> 100	> 100	–	–	–	–	–	–	–	–
O=C(Nc1ccccc1)N(C1=NCC(CI)S1)c1ccc(F)c(F)c1 (stereo unspecified)	> 100	> 100	> 100	–	38.4	> 100	–	61.4	55.6	–	–	–	–	–	–	–	–
O=c1[nH]/c(=C/c2ccc(OCc3ccccc3)cn2)c(=O)[nH]/c1=C/c1ccccc1	> 100	> 100	> 24.6	0.567	> 100	> 100	> 100	> 100	0.0706	–	–	–	–	–	–	–	–
Cn1c(=O)c2c(nc3n(CC(O)CCl)c(=O)ccn23)n(C)c1=O (stereo unspecified)	> 100	> 100	> 100	> 100	> 100	> 100	> 100	92.1	> 100	–	–	–	–	–	–	–	–
CC1CC[C@@]2(OC1)OC1C[C@H]3[C@@H]4CC=C5CC(OC6OC(CO)C(OC7OC(CO)C(O)C(OC8OCC(O)C(O)C8O)C7OC7OC(CO)C(OC8OC(C)C(OC9OC(C)C(O)C(O)C9O)C(O)C8O)C(O)C7O)C(O)C6O)CCC5(C)[C@H]4CCC3(C)C1[C@@H]2C (stereo partly specified)	15.3	15.3	16.6	18.4	20.1	17.3	17.7	24.7	–	–	–	–	–	–	–	–	–
S=C1c2ccc(Cl)cc2-n2cnnc2C2CSCN12 (stereo unspecified)	> 100	> 100	> 100	> 100	> 100	> 100	> 100	> 100	> 100	–	–	–	–	–	–	–	–
Cc1cc(C)nc(NS(=O)(=O)c2ccc(NC(=O)c3c4ccccc4nc4ccccc34)cc2)n1	> 100	> 100	> 100	> 100	> 100	> 100	> 100	> 100	> 100	–	–	–	–	–	–	–	–
COc1ccc(N2C(=O)C3c4[nH]c5ccc(OCc6ccccc6)cc5c4C4CCC(c5ccccc5)CC4C3C2=O)cc1 (stereo unspecified)	38.2	> 100	> 74.3	12.1	–	22.6	29	> 36.8	27.2	–	–	–	–	–	–	–	–
CC(=O)Nc1ccc2c(C)c3c(nc2n1)[nH]c1ccccc13	98.1	58.4	71.4	87.3	–	–	60.9	53.6	69.2	–	–	–	–	–	–	–	–
CC(=O)NC1C(OCc2ccccc2)OC(CO)C(O)C1OCC(=O)N1CCCC1C(=O)N[C@@H](CCC(=O)NCCCCNc1c2ccccc2nc2cccc([N+](=O)[O-])c12)C(N)=O (stereo partly specified)	> 100	64.6	50.6	54.5	> 100	> 100	–	> 100	65.8	–	–	–	–	–	–	–	–
c1ccc(/C(=N/Nc2nc3ccccc3s2)C2CCCCC2)nc1	25.5	14.8	16.5	39.3	25.8	18.7	31.3	27.8	–	–	–	–	–	–	–	–	–

SMILES	TGI (EKVX NSCLC) [µM]	TGI (HCT-116 colon) [µM]	TGI (IGROV1 ovarian) [µM]	TGI (MDA-MB-435) [µM]	TGI (SK-MEL-28 melanoma) [µM]	TGI (SK-OV-3 ovarian) [µM]	TGI (UACC-62 melanoma) [µM]	TGI (MOLT-4 leukemia) [µM]	TGI (SNB-75 CNS) [µM]	GI50 (MDA-MB-435)	GI50 (EKVX NSCLC) [µM]	GI50 (IGROV1 ovarian) [µM]	GI50 (MOLT-4 leukemia) [µM]	GI50 (SK-OV-3 ovarian) [µM]	GI50 (SNB-75 CNS) [µM]	GI50 (UACC-62 melanoma) [µM]	GI50 (SK-MEL-28 melanoma) [µM]
O=C(O)CN(CC(=O)O)C1CCCCC1N1CC(=O)OC(=O)C1 (stereo unspecified)	> 100	> 100	> 100	> 100	> 100	> 100	> 100	> 100	95.5	–	–	–	–	–	–	–	–
O=C(O)CCc1nc2c(n1-c1ccccc1)C(=O)c1ccccc1C2=O	> 100	> 100	> 100	> 100	> 100	> 100	> 100	> 100	> 100	–	–	–	–	–	–	–	–
NC(=O)Nc1c(Cl)cc(S(N)(=O)=O)cc1Cl	> 100	> 100	> 100	> 100	> 100	> 100	> 100	> 100	> 100	–	–	–	–	–	–	–	–
O=C(O)CC(Cc1ccccc1Cl)C(=O)O (stereo unspecified)	> 100	> 100	> 100	> 100	> 100	> 100	> 100	> 100	–	–	–	–	–	–	–	–	–
N#Cc1c(-c2ccc(Cl)cc2)c2c(nn3c4ccc5ccccc5c4nnc23)[nH]c1=O	27.1	7.02	4.06	8.69	5.28	7.99	3.24	> 46.4	–	–	–	–	–	–	–	–	–
CCN(CCCOc1ccccc1)CCN(CC)CCCOc1ccccc1	28.9	> 100	23.5	34.2	36.7	–	36.7	16.8	48.6	–	–	–	–	–	–	–	–
Cc1ccc(Nc2nc3[nH]ccc3c(=O)[nH]2)cc1	> 100	> 100	> 100	> 100	–	> 100	> 100	> 100	49.9	–	–	–	–	–	–	–	–
CN1CCC(CNc2cc(C3(C(=O)Nc4cc(C(=O)Nc5ccc(Cl)c(C(F)(F)F)c5)ccc4F)CC3)ncn2)CC1	6.62	–	6.19	4.04	–	4.58	–	6.09	2.86	1.84 µM	2.46	2.17	2.03	2.17	0.955	–	–
N=C1C(=N)c2ccccc2-c2ccccc21.[Cl-].[Ru+2].c1ccc(-c2ccccn2)nc1.c1ccc(-c2ccccn2)nc1	> 100	> 100	> 100	–	> 100	> 100	> 100	> 100	> 100	–	–	–	–	–	–	–	–
Cc1ccc(S(=O)(=O)NC(=O)Nc2nnc(S(N)(=O)=O)s2)cc1	> 100	> 100	–	> 100	–	> 100	> 100	> 100	> 100	–	–	–	–	–	–	–	–
COc1cccc(N2C(=O)CSC2c2cccc(Oc3ccccc3)c2)c1 (stereo unspecified)	61.4	12	–	> 100	> 100	> 100	11.7	28.4	39.5	–	–	–	–	–	–	–	–
Cn1c(=O)c2[nH]c(N/N=N/c3nncs3)nc2n(C)c1=O	> 100	> 100	> 100	> 100	> 100	> 100	> 100	> 100	–	–	–	–	–	–	–	–	–
O=C(/C=C(/C=C/c1ccc2[nH]ccc2c1)OB(F)F)/C=C/c1ccc2[nH]ccc2c1	86.9	–	–	–	–	> 100	5.02	> 100	15.7	–	3.17	–	2.06	3.43	2.72	1.85	–
Fc1ccc(C(OCCN2CCN(CCCc3ccccc3)CC2)c2ccc(F)cc2)cc1	15.2	–	22.2	14	23.6	18.9	21.4	19	16.4	–	–	–	–	–	–	–	–
CC(=O)O[C@H]1CC(C)(C)C(=C=C/C(C)=C/C=C/C=C/C=C(C)/C=C2C=C(/C=C/[C@@]34O[C@]3(C)C[C@@H](O)CC4(C)C)C(=O)O/2)[C@](C)(O)C1	–	50.5	7.72	> 100	> 100	–	24	24.1	28	–	–	–	–	–	–	–	–
CCO/C(=N/S(=O)(=O)C(F)(F)F)N(C(C)C)C(C)C	> 100	> 100	> 100	> 100	> 100	–	> 100	> 100	–	–	–	–	–	–	–	–	–
CCc1n[nH]c(=O)n1CCCCCCCCCCCCn1c(CC)n[nH]c1=O	> 100	> 100	> 100	76.3	–	> 100	61.3	67.7	80.6	–	–	–	–	–	–	–	–
CC(N=NNc1ccc(-c2nc3ccccc3[nH]2)cc1)C(=O)O (stereo unspecified)	> 100	> 100	> 100	> 100	> 100	> 100	–	> 100	> 100	–	–	–	–	–	–	–	–
Cc1ccc2c(c1)-c1nc(N)c(C#N)c(-c3ccc(Cl)cc3)c1CCS2(=O)=O	–	> 100	> 100	> 100	> 100	–	> 100	–	> 100	–	–	–	–	–	–	–	–
CC(C)(C)c1ccccc1N1C(=O)c2ccc3c4c(ccc(c24)C1=O)N(c1ccccc1C(C)(C)C)C3=O	> 100	> 100	> 100	> 100	> 100	> 100	> 100	> 100	–	–	–	–	–	–	–	–	–
CCCCN(CCCC)Cc1cc(Nc2ccnc3cc(Cl)ccc23)ccc1O	–	–	> 100	–	> 100	> 100	–	> 100	13.6	–	–	7.36	37.5	8.83	2.83	–	43.1
CCNCCNC(=O)c1ccc(I)cc1	> 100	–	> 100	–	> 100	> 100	> 100	> 100	> 100	–	–	–	–	–	–	–	–
C=CCC1(C#N)C(=S)NC2=C(C(=O)CC(C)(C)C2)C1c1ccccc1 (stereo unspecified)	60.5	> 100	> 100	> 100	> 100	–	–	> 100	74.8	–	–	–	–	–	–	–	–
